What all share (format): in vivo
For experiment [1], the system named is Setaria faberi (SETFA). Put plainly: Pre-emergence biological efficacy, glasshouse, 1000 g/ha, evaluated after 13 days (100=total damage to plant; 0=no damage to plant). The note with it: Setaria faberi, 312 h, rate 1,000 g/ha, read-out: Percentage damage caused to weed species, pre-emergence, SETFA. The method, boiled down: (§1)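 Glasshouse conditions were controlled at 24/16° C. day/night with a 14-hour photoperiod and 65% humidity; pots contained standard soil into which seeds had been sown, and plants were watered twice daily.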

The subject of experiment [2] is Solanum nigrum (SOLNI). Described as above. To be noted: Solanum nigrum, 312 h, rate 1,000 g/ha, read-out: Percentage damage caused to weed species, pre-emergence, SOLNI. The method, boiled down:
as §1

The test system of experiment [3] is Amaranthus retroflexus (AMARE). Described as above. The note with it: Amaranthus retroflexus, 312 h, rate 1,000 g/ha, read-out: Percentage damage caused to weed species, pre-emergence, AMARE. In short, it runs like this:
as §1

Experiment [4] has as its system Alopecurus myosuroides (ALOMY). The experiment is described as above. The note with it: Alopecurus myosuroides, 312 h, rate 1,000 g/ha, read-out: Percentage damage caused to weed species, pre-emergence, ALOMY. In short, it runs like this: as §1
Experiment [5] concerns Ipomoea hederaceae (IPOHE). Described as above. To be noted: Ipomoea, 312 h, rate 1,000 g/ha, read-out: Percentage damage caused to weed species, pre-emergence, IPOHE. The method, boiled down: as §1
The test system of experiment [6] is Echinochloa crus-galli (ECHCG). The description is as above. The note with it: Echinochloa crus-galli, 312 h, rate 1,000 g/ha, read-out: Percentage damage caused to weed species, pre-emergence, ECHCG. In short, it runs like this: as §1
The subject of experiment [7] is Setaria faberi (SETFA). Kind of experiment: Post-emergence biological efficacy, glasshouse, 500 or 1000 g/ha, evaluated after 13 days (100=total damage to plant; 0=no damage to plant). The note with it: Setaria faberi, 312 h, rate 1,000 g/ha, read-out: Percentage damage caused to weed species, post-emergence, SETFA. The method, boiled down:
(§2)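 Plants raised from seed in pots of standard soil receive the spray after emergence. They then grow on under controlled glasshouse conditions (24/16° C. day/night, 14 hours light, 65% humidity) and are watered twice a day.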

The subject of experiment [8] is Solanum nigrum (SOLNI). The description is as above. The note with it: Solanum nigrum, 312 h, rate 1,000 g/ha, read-out: Percentage damage caused to weed species, post-emergence, SOLNI. The method, boiled down:
as §2

Experiment [9] has as its system Amaranthus retroflexus (AMARE). The experiment is described as above. To be noted: Amaranthus retroflexus, 312 h, rate 1,000 g/ha, read-out: Percentage damage caused to weed species, post-emergence, AMARE. The method, boiled down:
as §2

Experiment [10] has as its system Echinochloa crusgaffi (ECHCG). The experiment is described as above. The note with it: Echinochloa, 312 h, rate 1,000 g/ha, read-out: Percentage damage caused to weed species, post-emergence, ECHCG. In short, it runs like this: as §2
Experiment [11] has as its system Alopecurus myosuroides (ALOMY). The description is as above. The note with it: Alopecurus myosuroides, 312 h, rate 1,000 g/ha, read-out: Percentage damage caused to weed species, post-emergence, ALOMY. The method, boiled down: as §2
In experiment [12] the test system is Ipomoea hederaceae (IPOHE). The experiment is described as above. To be noted: Ipomoea, 312 h, rate 1,000 g/ha, read-out: Percentage damage caused to weed species, post-emergence, IPOHE. The method, boiled down: as §2

Turning to `COC(=O)c1nc(-c2ccc(Cl)c(N(C)C)c2F)nc2[nH]cc(C)c12` [Compound 1-116, 2-(4-Chloro-3-dimethylamino-2-fluorophenyl)-4-methoxycarbonyl-5-methyl-7H-pyrrolo[2,3-d]pyrimidine], the pest or weed control at 1000 g/ha (with Setaria faberi (SETFA) [1]; in the experiment on Solanum nigrum (SOLNI) [2]; in experiment [3]; in experiment [4]; in experiment [5]; in experiment [6]) was 0% throughout. Besides, the pest or weed control at 1000 g/ha in the experiment on Setaria faberi (SETFA) [7] was found to be 20%; in the experiment on Solanum nigrum (SOLNI) [8], 40%; in experiment [9], 50%; in [10] it was 0%; in experiment [11], 0%; in experiment [12] it was 50%.
As to `COC(=O)c1nc(-c2ccc(Cl)c(N(C)C)c2F)nc2[nH]c(C)cc12` [Compound 1-118, 2-(4-chloro-3-dimethylamino-2-fluorophenyl)-4-methoxycarbonyl-6-methyl-7H-pyrrolo[2,3-d]pyrimidine], the pest or weed control at 1000 g/ha with Setaria faberi (SETFA) [1] stood at 20%; with Solanum nigrum (SOLNI) [2], 70%; in experiment [3] it was 40%; in experiment [4], 0%; in experiment [5], 40%; in [6], 10%. The pest or weed control at 1000 g/ha in the experiment on Setaria faberi (SETFA) [7] was 70%; with Solanum nigrum (SOLNI) [8] it was 80%; in [9], 100%; in experiment [10], 50%; in [11], 10%; in [12] it was 50%.
`COC(=O)c1nc(-c2ccc(Cl)c(N(C)C)c2F)nc2[nH]c(C)c(C)c12` [Compound 1-120, 2-(4-Chloro-3-dimethylamino-2-fluorophenyl)-5,6-dimethyl-4-methoxycarbonyl-7H-pyrrolo[2,3-d]pyrimidine]: the pest or weed control at 1000 g/ha (in the experiment with Setaria faberi (SETFA) [1]; with Solanum nigrum (SOLNI) [2]; in experiment [3]; in [4]; in experiment [5]; in [6]) was 0% each time. Further, the pest or weed control at 1000 g/ha in the experiment with Setaria faberi (SETFA) [7] came to 0%; with Solanum nigrum (SOLNI) [8], 20%; in experiment [9] it was 10%; in [10], 0%; in [11], 0%; in experiment [12], 20%.
As for `O=C(O)c1nc(Cl)nc2[nH]ccc12` [Compound 1-121, 4-carboxy-2-chloro-7H-pyrrolo[2,3-d]pyrimidine], the pest or weed control at 1000 g/ha (in the experiment on Setaria faberi (SETFA) [1]; with Solanum nigrum (SOLNI) [2]; in experiment [3]; in [4]; in [5]; in [6]) was 0% throughout. The pest or weed control at 1000 g/ha in the experiment on Setaria faberi (SETFA) [7] is 0%; with Solanum nigrum (SOLNI) [8] it was 10%; in experiment [9], 0%; in experiment [10] it was 0%; in [11] it was 0%; in experiment [12] it was 0%.
`COC(=O)c1nc(Cl)nc2[nH]c(C)cc12` [Compound 1-126, 2-Chloro-4-methoxy-carbonyl-6-methyl-7H-pyrrolo[2,3-d]pyrimidine]: the pest or weed control at 1000 g/ha (in the experiment with Setaria faberi (SETFA) [1]; in the experiment with Solanum nigrum (SOLNI) [2]; in [3]; in [4]; in experiment [5]; in experiment [6]) was 0% each time. Besides, the pest or weed control at 1000 g/ha (with Setaria faberi (SETFA) [7]; in the experiment on Solanum nigrum (SOLNI) [8]; in experiment [9]; in [10]; in experiment [11]; in experiment [12]) was 0% in each case.
Regarding `COC(=O)c1nc(-c2ccc(Cl)c(OC)c2F)nc2c1c(C)cn2C` [Compound 2-64, 2-(4-Chloro-2-fluoro-3-methoxyphenyl)-5,7-dimethyl-4-methoxycarbonyl-7H-pyrrolo[2,3-d]pyrimidine], the pest or weed control at 1000 g/ha in the experiment on Setaria faberi (SETFA) [1] is 0%; in the experiment with Solanum nigrum (SOLNI) [2] it was 40%; in experiment [3] it was 30%; in [4], 0%; in [5], 50%; in experiment [6], 0%. The pest or weed control at 1000 g/ha with Setaria faberi (SETFA) [7] turned out to be 0%; with Solanum nigrum (SOLNI) [8] it was 60%; in [9], 30%; in [10], 0%; in experiment [11], 0%; in experiment [12], 40%.
With `COC(=O)c1nc(-c2ccc(Cl)c(F)c2)nc2c1ccn2CC1CC1` [Compound 5-18, 2-(4-Chloro-3-fluorophenyl)-7-cyclopropylmethyl-4-methoxycarbonyl-7H-pyrrolo[2,3-d]pyrimidine], the pest or weed control at 1000 g/ha (in the experiment with Setaria faberi (SETFA) [1]; in the experiment with Solanum nigrum (SOLNI) [2]; in experiment [3]; in experiment [4]; in experiment [5]; in experiment [6]) was 0% each time. Moreover, the pest or weed control at 1000 g/ha is 0% in the experiment on Setaria faberi (SETFA) [7]; 20% with Solanum nigrum (SOLNI) [8]; 0% in experiment [9]; 0% in [10]; 0% in experiment [11]; 0% in [12].
Regarding `Cc1cc2c(C(=O)O)nc(-c3ccc(Cl)c(F)c3)nc2n1CC1CC1` [Compound 5-21, 4-Carboxy-2-(4-chloro-3-fluorophenyl)-7-cyclopropylmethyl-6-methyl-7H-pyrrolo[2,3-d]pyrimidine], the pest or weed control at 1000 g/ha with Setaria faberi (SETFA) [1] was 10%; with Solanum nigrum (SOLNI) [2] it was 40%; in experiment [3], 100%; in experiment [4], 10%; in experiment [5], 30%; in [6], 0%. Besides, the pest or weed control at 1000 g/ha in the experiment on Setaria faberi (SETFA) [7] was 10%; in the experiment with Solanum nigrum (SOLNI) [8], 50%; in [9], 70%; in [10], 10%; in experiment [11], 10%; in experiment [12], 30%.
As to `COc1c(Cl)ccc(-c2nc(C(=O)O)c3cc(C)n(CC4CC4)c3n2)c1F` [Compound 5-65, 4-Carboxy-2-(4-chloro-2-fluoro-3-methoxyphenyl)-7-cyclopropymethyl-6-methyl-7H-pyrrolo[2,3-d]pyrimidine], the pest or weed control at 1000 g/ha (with Setaria faberi (SETFA) [1]; in the experiment with Solanum nigrum (SOLNI) [2]; in experiment [3]; in [4]; in experiment [5]; in [6]) was 0% throughout. Further, the pest or weed control at 1000 g/ha in the experiment with Setaria faberi (SETFA) [7] was found to be 20%; in the experiment with Solanum nigrum (SOLNI) [8] it was 20%; in experiment [9], 10%; in [10], 0%; in [11] it was 0%; in [12], 10%.

The record behind these values is patent US20120202690A1, “HERBICIDAL COMPOUNDS” (SYNGENTA LIMITED, priority 2009, published 2012).
